The record followed here is ChEMBL document CHEMBL4393714, “Multi-targeting protein-protein interaction inhibitors: Evolution of macrocyclic ligands with embedded carbohydrates (MECs) to improve selectivity” (Eur J Med Chem, 2019).

For orientation: inhibition means the share of the control response that was lost under treatment. For orientation: pIC50 means −log10 of the IC50, conventionally taken in molar units. A word on the pKi: it is the Ki on a negative log10 scale, so that one unit is a factor of ten.

The target of assay [1] is Muscarinic acetylcholine receptor M3 (Homo sapiens) (UniProt P20309). The assay is described as follows: Displacement of [3H]4-DAMP from human recombinant muscarinic 3 receptor at 10 uM measured after 60 mins by scintillation counter method relative to control. (Displacement assays read how much labelled ligand stays bound in the presence of the test substance.)
Sequence of Muscarinic acetylcholine receptor M3 (Homo sapiens) (P20309 whole entry, looked up): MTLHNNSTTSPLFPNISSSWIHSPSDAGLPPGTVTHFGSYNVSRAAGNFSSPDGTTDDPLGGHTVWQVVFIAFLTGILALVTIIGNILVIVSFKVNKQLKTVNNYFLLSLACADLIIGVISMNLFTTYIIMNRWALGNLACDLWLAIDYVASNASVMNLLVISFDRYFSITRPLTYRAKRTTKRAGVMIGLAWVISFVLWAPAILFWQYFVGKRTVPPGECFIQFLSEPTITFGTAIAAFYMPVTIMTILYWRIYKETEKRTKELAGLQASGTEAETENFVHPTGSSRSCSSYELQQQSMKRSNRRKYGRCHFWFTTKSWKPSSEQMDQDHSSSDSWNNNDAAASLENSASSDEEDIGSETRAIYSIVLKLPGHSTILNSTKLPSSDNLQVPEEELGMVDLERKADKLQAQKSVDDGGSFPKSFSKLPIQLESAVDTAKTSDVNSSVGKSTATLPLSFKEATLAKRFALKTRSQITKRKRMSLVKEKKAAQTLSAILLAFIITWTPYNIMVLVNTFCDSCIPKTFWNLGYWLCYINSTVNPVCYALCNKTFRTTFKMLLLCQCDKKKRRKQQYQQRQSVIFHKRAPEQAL
For assay [2], the target named is Delta-type opioid receptor (Homo sapiens) (UniProt P41143). The assay is described as follows: Displacement of [3H] DADLE from human delta opioid receptor at 10 uM measured after 60 mins by scintillation counter method relative to control.
Sequence of Delta-type opioid receptor (Homo sapiens) (P41143 whole entry): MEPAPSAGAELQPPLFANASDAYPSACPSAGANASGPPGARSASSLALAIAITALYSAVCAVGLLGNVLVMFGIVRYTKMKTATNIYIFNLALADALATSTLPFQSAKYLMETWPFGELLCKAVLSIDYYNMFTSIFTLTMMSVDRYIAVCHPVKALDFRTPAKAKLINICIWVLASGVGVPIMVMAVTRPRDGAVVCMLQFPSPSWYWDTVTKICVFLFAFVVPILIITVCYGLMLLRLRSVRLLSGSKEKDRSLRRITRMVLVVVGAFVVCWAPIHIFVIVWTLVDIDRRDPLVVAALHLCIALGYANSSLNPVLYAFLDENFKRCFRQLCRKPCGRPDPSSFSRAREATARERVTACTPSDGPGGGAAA
Assay [3] deals with Histamine H1 receptor (Homo sapiens) (UniProt P35367). As to the kind of experiment: Displacement of [3H]pyrilamine from human recombinant H1 receptor at 10 uM measured after 60 mins by scintillation counter method relative to control.
Sequence of Histamine H1 receptor (Homo sapiens) (P35367 whole entry): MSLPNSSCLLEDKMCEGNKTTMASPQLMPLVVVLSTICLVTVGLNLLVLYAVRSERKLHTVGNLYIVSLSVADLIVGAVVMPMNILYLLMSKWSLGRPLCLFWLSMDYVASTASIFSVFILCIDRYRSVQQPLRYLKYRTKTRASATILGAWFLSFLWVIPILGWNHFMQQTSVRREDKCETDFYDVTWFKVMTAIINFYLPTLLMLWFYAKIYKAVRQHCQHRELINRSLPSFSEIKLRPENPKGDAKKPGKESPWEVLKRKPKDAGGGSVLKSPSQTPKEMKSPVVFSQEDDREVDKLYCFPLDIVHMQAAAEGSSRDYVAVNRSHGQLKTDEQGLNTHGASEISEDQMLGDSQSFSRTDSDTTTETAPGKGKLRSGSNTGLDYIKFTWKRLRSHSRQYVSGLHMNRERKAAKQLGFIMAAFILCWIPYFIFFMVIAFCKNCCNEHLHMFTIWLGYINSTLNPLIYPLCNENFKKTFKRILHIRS
The target of assay [4] is Neuropeptide Y receptor type 1 (Homo sapiens) (UniProt P25929). As to the kind of experiment: Displacement of [125I] peptide YY from human neuropeptide Y1 receptor at 10 uM measured after 120 mins by scintillation counter method relative to control.
Sequence of Neuropeptide Y receptor type 1 (Homo sapiens) (P25929 whole entry): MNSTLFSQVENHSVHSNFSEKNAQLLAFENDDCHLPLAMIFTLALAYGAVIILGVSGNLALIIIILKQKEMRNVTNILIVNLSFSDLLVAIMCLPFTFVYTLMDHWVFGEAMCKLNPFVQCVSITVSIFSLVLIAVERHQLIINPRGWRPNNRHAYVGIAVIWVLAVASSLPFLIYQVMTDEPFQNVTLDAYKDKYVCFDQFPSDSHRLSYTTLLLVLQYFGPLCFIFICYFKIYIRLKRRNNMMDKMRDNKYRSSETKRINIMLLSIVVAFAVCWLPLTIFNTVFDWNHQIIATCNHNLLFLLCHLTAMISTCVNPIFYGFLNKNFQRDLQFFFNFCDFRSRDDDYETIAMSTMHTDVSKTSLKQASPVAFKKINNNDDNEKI
The target of assay [5] is Cannabinoid receptor 1 (Homo sapiens) (UniProt P21554). The assay is described as follows: Displacement of [3H]CP 55940 from human recombinant CB1 receptor at 10 uM measured after 120 mins by scintillation counter method relative to control.
Sequence of Cannabinoid receptor 1 (Homo sapiens) (P21554 whole entry): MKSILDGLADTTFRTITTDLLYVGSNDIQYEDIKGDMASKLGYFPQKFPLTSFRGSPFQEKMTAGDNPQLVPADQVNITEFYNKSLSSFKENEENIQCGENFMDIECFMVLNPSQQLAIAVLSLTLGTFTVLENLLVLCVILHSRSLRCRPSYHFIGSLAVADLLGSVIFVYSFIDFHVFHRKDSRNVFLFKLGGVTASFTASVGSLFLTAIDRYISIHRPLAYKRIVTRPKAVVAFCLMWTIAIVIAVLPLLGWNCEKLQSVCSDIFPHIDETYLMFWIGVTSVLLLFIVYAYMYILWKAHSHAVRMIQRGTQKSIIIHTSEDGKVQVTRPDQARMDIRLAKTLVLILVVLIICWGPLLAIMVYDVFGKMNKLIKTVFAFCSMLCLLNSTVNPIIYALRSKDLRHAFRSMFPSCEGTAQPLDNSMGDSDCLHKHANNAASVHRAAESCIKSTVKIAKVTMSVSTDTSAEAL
The species named for assay [6] is Rattus norvegicus. The assay is described as follows: Displacement of [3H] TBPS from rat GABA gated chloride channel at 10 uM measured after 120 mins by scintillation counter method relative to control.
For assay [7], the target named is Sodium-dependent serotonin transporter (Homo sapiens, UniProt P31645). The assay is described as follows: Displacement of [3H] imipramine from human recombinant 5-HT transporter measured after 60 mins by scintillation counter method.
Sequence of Sodium-dependent serotonin transporter (P31645 whole entry): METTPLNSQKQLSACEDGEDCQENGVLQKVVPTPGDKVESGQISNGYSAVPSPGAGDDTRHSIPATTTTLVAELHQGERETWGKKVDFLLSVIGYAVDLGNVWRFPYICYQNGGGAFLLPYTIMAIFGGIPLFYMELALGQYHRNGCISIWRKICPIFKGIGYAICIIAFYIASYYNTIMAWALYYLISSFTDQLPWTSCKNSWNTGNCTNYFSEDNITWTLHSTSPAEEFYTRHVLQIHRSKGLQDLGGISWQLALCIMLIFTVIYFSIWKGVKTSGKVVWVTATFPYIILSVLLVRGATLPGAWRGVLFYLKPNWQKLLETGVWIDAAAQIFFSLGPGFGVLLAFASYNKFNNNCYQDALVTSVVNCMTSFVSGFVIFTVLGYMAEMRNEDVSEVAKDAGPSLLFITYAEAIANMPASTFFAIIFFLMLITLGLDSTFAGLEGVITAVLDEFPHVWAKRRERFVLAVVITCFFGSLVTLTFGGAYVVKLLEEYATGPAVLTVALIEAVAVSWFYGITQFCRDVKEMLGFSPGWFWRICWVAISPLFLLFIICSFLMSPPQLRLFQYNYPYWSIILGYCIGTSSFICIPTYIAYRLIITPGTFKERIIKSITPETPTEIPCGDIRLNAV
In assay [8] the target is GABA-A receptor; anion channel (Rattus norvegicus) (UniProt O09028+P15431+P18506+P18508+P19969+P20236+P23574+P23576+P28471+P28473+P30191+P62813+P63079+P63138+Q91ZM7+Q9ES14). As to the kind of experiment: Displacement of [3H]flunitrazepam from rat GABAA ion channel at 10 uM measured after 120 mins by scintillation counter method relative to control. The assay is classed as protein-complex assay.

pIC50, pKi: −log10 of the molar value.

As for `CC(C)CCO[C@@H]1[C@H]2OC(C)(C)O[C@H]2[C@H]2Cn3cc(nn3)COCCCCCCN(CCc3ccc4ccccc4c3)CC[C@H]1O2`, the inhibition turned out to be 41.2% in assay [1]; 83.4% in assay [2]; 60.5% in assay [3]; 33.8% in assay [5]; 62.4% in assay [6]. The Activity turned out to be 3.3% in assay [4] and 5.1% in assay [8]. In addition, in assay [7], the pIC50 is 5.13. The pKi in assay [7] was 5.47.
